Assay results reported in patent US4699897A, “Biologically active peptides structurally related to regions within growth hormones” (Amgen, priority 1983, dated 1987).
Square brackets hold non-standard residues; d marks the D form. Peptide text beside a SMILES is read from it.

How the values were obtained:
db/db mice = assay: Insulin potentiating effects on genetically altered mice at differing ages (plasma glucose); type: in vivo, mouse; details: for Plasma Glucose (mg/dL at 60 min.), Age: 8 weeks, Glucose + Insulin + Peptide: db/db mice aged 8 weeks; for Plasma Glucose (mg/dL at 60 min.), Age: 8 weeks, Glucose + Insulin + Peptide / Plasma Glucose (mg/dL at 60 min.), Age: 14 weeks, Glucose + Insulin + Peptide: i.p. glucose + insulin 0.001 mU/10 g + peptide 5 μg/10 g; for Plasma Glucose (mg/dL at 60 min.), Age: 14 weeks, Glucose + Insulin + Peptide: db/db mice aged 14 weeks
Procedure: A study was conducted to ascertain insulin potentiating effects of Peptide Nos. 6, 9 and 10 on db/db mice aged 8 weeks and 14 weeks.
Test groups of 5 each of db/db mice weighing from 40 to 60 grams each were used. Glucose was administered intraperitoneally at a dosage of […] of a solution containing 135 mg/ml glucose. Insulin was intraperitoneally administered at a dose of 0.001 mU/10 g and Peptide Nos. 6, 9 and 10 were each simultaneously administered at a dose of 5 μg/10 g.

[1] = system: ob/ob, ob/+, db/db and db/m mice; assay: Insulin potentiating effects of Peptide No. 6 compared to DP in mice (plasma glucose); type: in vivo, mouse; details: for Plasma Glucose (mg/dL at 60 min.), Glucose + Insulin + peptide, Mouse db/db / Plasma Glucose (mg/dL at 60 min.), Glucose + Insulin + peptide, Mouse db/m (normal) / Plasma Glucose (mg/dL at 60 min.), Glucose + Insulin + peptide, Mouse ob/+ (normal) / Plasma Glucose (mg/dL at 60 min.), Glucose + Insulin + peptide, Mouse ob/ob: i.p. glucose + insulin 0.001 mU/10 g + peptide 5 μg/10 g
Procedure: (§1) A study was conducted to determine the relative insulin potentiating effects of Peptide No. 6 as compared to those of deletion peptide ("hGH32-46 ").
(§2) Animals in test groups of five each were meployed in these procedures. Sprague-Dawley rats weighed approximately 200 grams; homozygous genetically abnormal mice (db/db and ob/ob) had weights in the range of 40 to 60 grams; heterozygous normal mice all weighed approximately 25 grams. Glucose was administered intraperitoneally at a dosage of […] of a solution containing 135 mg/ml glucose, except for one group of rats which were given an oral dose of 1 ml of 270 mg/ml glucose solution. Insulin was intraperitoneally administered at a dose of 0.001 mU/10 g and both Peptide No. 6 and deletion peptide were administered were simultaneously administered at a dose of 5 μg/10 g.

[2] = system: normal female Rhesus monkeys; assay: Insulin potentiating effects in primates of Peptide No. 6 compared to deletion peptide (plasma glucose); type: in vivo, Rhesus monkey
Procedure: In a manner analogous to Study C, above, Peptide No. 6 and deletion peptide were studied for insulin potentiating effects in Rhesus monkeys. Blood samples were drawn from normal female monkeys (in […] experimental groups of 3) five minutes before administration of an oral dose of 3.0 ml/kg of 0.5 g/ml glucose and intramuscular administration of either: (1) 0.5 ml/kg phosphate buffered saline (PBS), pH 7.4; (2) deletion peptide 0.1 ml/kg of 1.0 mg/ml solution in PBS; (3) deletion peptide as above combined with 0.5 ml/kg of 20 mU/ml insulin in PBS; or (4) insulin alone as above or (5) Peptide No. 6 0.1 ml/kg of a 0.5 mg/ml solution in PBS combined with insulin as above. Blood samples were then periodically withdrawn over two hours and analyzed for plasma glucose levels.

Sprague-Dawley rats = assay: Insulin potentiating effects of Peptide No. 6 compared to DP in rats (plasma glucose); type: in vivo; details: for Plasma Glucose (mg/dL at 60 min.), Glucose + Insulin + peptide, Rat (normal): i.p. glucose + insulin 0.001 mU/10 g + peptide 5 μg/10 g
Procedure: as §1, §2

[3] = system: normal male Sprague-Dawley rats; assay: Insulin potentiating effects in normal rats (plasma glucose after i.p. glucose load); type: in vivo, rat; details: for Plasma Glucose (mg/dL at 60 min.), Glucose + Insulin + Peptide: rats fasted 18 h, i.p. 1.0 ml 0.75M glucose + 15 mU insulin + 25 μg peptide, mean ± standard error
Procedure: A study was conducted to determine insulin potentiating effects of Peptide Nos. 3, 5, and 6. Also tested was a dipeptide NH2 -Ile-Pro-COOH, a dipeptide outside the scope of the invention. Test groups of 5 normal male Sprague-Dawley rats weighing about 200 grams were fasted for 18 hours and received (intraperitoneally in rapid succession) 1.0 ml of 0.75M glucose, and either 15 mU of insulin with 1% bovine serum ablumin in normal saline (pH 7.4) or a mixture of insulin as above with 25 μg Peptide Nos. 3, 5, 6 and dipeptide. Controls received only bovine serum albumin and saline. Blood was drawn after one hour and plasma glucose levels were determined.

rabbits = details: cited from earlier work
normal rats [4] = details: cited from earlier work
[5] = system: insulin-stimulated fat cells of older obese rats; details: cited from earlier work
[6] = system: various model animal test systems; details: cited from earlier work
normal rats [7] = details: cited from earlier work; remark: listed apart in the source
[8] = system: GT-impaired strain of mice (YS/Wf Nctr); details: cited from earlier work

Compound: CC[C@H](C)[C@H](NC(=O)[C@H](Cc1ccc(O)cc1)NC(=O)[C@@H](C)NC(=O)[C@H](CCC(=O)O)NC(=O)[C@@H](N)CCC(=O)O)C(=O)N1CCC[C@H]1C(=O)N[C@@H](CCCCN)C(=O)O [Peptide No. 9] (H-EE[dA]YIPK-OH)
- Plasma Glucose (mg/dL at 60 min.), Age: 8 weeks, Glucose + Insulin + Peptide (db/db mice): 90.8 ± 16 mg/dL
- Plasma Glucose (mg/dL at 60 min.), Age: 14 weeks, Glucose + Insulin + Peptide (db/db mice): 228 ± 38 mg/dL

Compound: CC[C@H](C)[C@H](NC(=O)[C@H](Cc1ccc(O)cc1)NC(=O)[C@H](C)NC(=O)[C@H](CCC(=O)O)NC(=O)[C@@H](N)CCC(=O)O)C(=O)N1CCC[C@H]1C(=O)N[C@@H](CCCCN)C(=O)O [Peptide No. 6, GLU--GLU--ALA--TYR--ILE--PRO--LYS] (H-EEAYIPK-OH)
- Plasma Glucose (mg/dL at 60 min.), Glucose + Insulin + peptide, Mouse db/db [1]: 109 ± 22 mg/dL
- Plasma Glucose (mg/dL at 60 min.), Glucose + Insulin + peptide, Mouse db/m (normal) [1]: 22 ± 10 mg/dL
- Plasma Glucose (mg/dL at 60 min.), Glucose + Insulin + peptide, Mouse ob/+ (normal) [1]: 28.5 ± 5 mg/dL
- Plasma Glucose (mg/dL at 60 min.), Glucose + Insulin + peptide, Mouse ob/ob [1]: 118 ± 20 mg/dL
- insulin potentiating effect relative to deletion peptide (in words) ([1]; mice and rats, Table V): uniformly more effective in potentiating insulin effects than deletion peptide alone
- Plasma Glucose (mg/dL), Glucose + Insulin + Peptide No. 6, +5 min. ([2]; +5 min., oral glucose + i.m. insulin + peptide 0.1 ml/kg of 0.5 mg/ml): 62 ± 6 mg/dL
- Plasma Glucose (mg/dL), Glucose + Insulin + Peptide No. 6, +15 min. ([2]; +15 min., oral glucose + i.m. insulin + peptide 0.1 ml/kg of 0.5 mg/ml): 69.5 ± 6 mg/dL
- Plasma Glucose (mg/dL), Glucose + Insulin + Peptide No. 6, +30 min. ([2]; +30 min., oral glucose + i.m. insulin + peptide 0.1 ml/kg of 0.5 mg/ml): 68 ± 9.7 mg/dL
- Plasma Glucose (mg/dL), Glucose + Insulin + Peptide No. 6, +45 min. ([2]; +45 min., oral glucose + i.m. insulin + peptide 0.1 ml/kg of 0.5 mg/ml): 73 ± 3.5 mg/dL
- Plasma Glucose (mg/dL), Glucose + Insulin + Peptide No. 6, +60 min. ([2]; +60 min., oral glucose + i.m. insulin + peptide 0.1 ml/kg of 0.5 mg/ml): 79 ± 6.5 mg/dL
- Plasma Glucose (mg/dL), Glucose + Insulin + Peptide No. 6, +120 min. ([2]; +120 min., oral glucose + i.m. insulin + peptide 0.1 ml/kg of 0.5 mg/ml): 88 ± 12 mg/dL
- insulin potentiating effect relative to deletion peptide (in words) ([2]; Table VI): essentially on par with, or superior on a weight basis to, those of deletion peptide
- Plasma Glucose (mg/dL at 60 min.), Glucose + Insulin + peptide, Rat (normal) (Sprague-Dawley rats): 52 ± 6 mg/dL
- insulin potentiating effect (in words) (db/db mice; db/db mice aged 8 and 14 weeks, Table IV): significant effectiveness
- Plasma Glucose (mg/dL at 60 min.), Age: 8 weeks, Glucose + Insulin + Peptide (db/db mice): 92.3 ± 12 mg/dL
- Plasma Glucose (mg/dL at 60 min.), Age: 14 weeks, Glucose + Insulin + Peptide (db/db mice): 124 ± 34 mg/dL
- insulin potentiating effect (in words) ([3]; normal rats, Table III): exceptionally active insulin potentiator
- Plasma Glucose (mg/dL at 60 min.), Glucose + Insulin + Peptide [3]: 52 ± 28 mg/dL

Compound: synthetic tetradecapeptide having a sequence of amino acids copying residues at positions 31 through 44: literature tetradecapeptide copying hGH residues 31 through 44 (Yudaev et al.) (FEEAYIPKEQKYSF; UniProt P01241 57-70, looked up, fragment)
- in vivo hypoglycemic effect (rabbits): absence of any in vivo hypoglycemic effect
- in vivo hypoglycemic effect (normal rats [4]): absence of any in vivo hypoglycemic effect
- in vitro effect on fat cells ([5]; Yudaev et al. 1983): substantially the same in vitro effect on fat cells

Compound: CC[C@H](C)[C@H](NC(=O)[C@H](Cc1ccc(O)cc1)NC(=O)[C@H](C)NC(=O)[C@H](CCC(=O)O)NC(=O)[C@@H](N)CCC(=O)O)C(=O)N1CCC[C@H]1C(=O)N[C@@H](CCCCN)C(=O)N[C@@H](CCC(=O)O)C(=O)N[C@@H](CCC(N)=O)C(=O)N[C@@H](CCCCN)C(=O)N[C@@H](Cc1ccc(O)cc1)C(=O)N[C@@H](CO)C(=O)N[C@@H](Cc1ccccc1)C(=O)N[C@@H](CC(C)C)C(=O)N[C@@H](CCC(N)=O)C(=O)O [hGH32-46, NH2 -Glu-Glu-Ala-Tyr-Ile-Pro-Lys-Glu-Gln-Lys-Tyr-Ser-Phe-Leu-Gln-COOH] (H-EEAYIPKEQKYSFLQ-OH)
- potentiation of insulin activity ([6]; contemporaneously administered with exogenous insulin): potentiate insulin activity and augment the hypoglycemic effectiveness of even quite small parenteral doses of insulin
- hypoglycemic effects of the peptide alone ([6]; various model animal test systems): lacked hypoglycemic effects
- late increases in free fatty acids and glycemic effects (normal rats [7]): did not show either the late increases in free fatty acids nor the glycemic effects which are characteristic of intact hGH
- in vitro glucose utilization of fat cells ([5]; insulin-stimulated fat cells of older obese rats, Frigeri et al.): in vitro increase in glucose utilization
- Plasma Glucose (mg/dL at 60 min.), Glucose + Insulin + peptide, Mouse db/db [1]: 134 ± 13 mg/dL
- Plasma Glucose (mg/dL at 60 min.), Glucose + Insulin + peptide, Mouse db/m (normal) [1]: 49 ± 12 mg/dL
- Plasma Glucose (mg/dL at 60 min.), Glucose + Insulin + peptide, Mouse ob/+ (normal) [1]: 56 ± 9 mg/dL
- Plasma Glucose (mg/dL at 60 min.), Glucose + Insulin + peptide, Mouse ob/ob [1]: 138 ± 11 mg/dL
- glucose tolerance [8]: unspecified degree of improvement in glucose tolerance
- Plasma Glucose (mg/dL), Glucose + Insulin + hGH32-46, +5 min. ([2]; +5 min., oral glucose + i.m. insulin + peptide 0.1 ml/kg of 1.0 mg/ml): 64 ± 4 mg/dL
- Plasma Glucose (mg/dL), Glucose + Insulin + hGH32-46, +15 min. ([2]; +15 min., oral glucose + i.m. insulin + peptide 0.1 ml/kg of 1.0 mg/ml): 69 ± 9 mg/dL
- Plasma Glucose (mg/dL), Glucose + Insulin + hGH32-46, +30 min. ([2]; +30 min., oral glucose + i.m. insulin + peptide 0.1 ml/kg of 1.0 mg/ml): 80 ± 5.3 mg/dL
- Plasma Glucose (mg/dL), Glucose + Insulin + hGH32-46, +45 min. ([2]; +45 min., oral glucose + i.m. insulin + peptide 0.1 ml/kg of 1.0 mg/ml): 80 ± 5.9 mg/dL
- Plasma Glucose (mg/dL), Glucose + Insulin + hGH32-46, +60 min. ([2]; +60 min., oral glucose + i.m. insulin + peptide 0.1 ml/kg of 1.0 mg/ml): 96 ± 8 mg/dL
- Plasma Glucose (mg/dL), Glucose + Insulin + hGH32-46, +120 min. ([2]; +120 min., oral glucose + i.m. insulin + peptide 0.1 ml/kg of 1.0 mg/ml): 97 ± 6.6 mg/dL
- Plasma Glucose (mg/dL at 60 min.), Glucose + Insulin + peptide, Rat* (normal) (Sprague-Dawley rats; glucose administered orally (1 ml of 270 mg/ml) + insulin 0.001 mU/10 g + peptide 5 μg/10 g): 93.3 ± 14 mg/dL
- Plasma Glucose (mg/dL at 60 min.), Glucose + Insulin + peptide, Rat (normal) (Sprague-Dawley rats): 73 ± 10 mg/dL

Compound: CC[C@H](C)[C@H](N)C(=O)N1CCC[C@H]1C(=O)O [NH2 --Ile--Pro--COOH, NH2 -Ile-Pro-COOH] (H-Ile-Pro-OH)
- Plasma Glucose (mg/dL at 60 min.), Glucose + Insulin + Peptide [3]: 95 ± 30 mg/dL
